Source: US9198433B2, “Substituted benzene fungicides” (E I DU PONT DE NEMOURS AND COMPANY, priority 2007, dated 2015)
Marks after values point to notes of the source that are not given here.

How the values were obtained:
Assay type in all cases: in vivo
[1] = system: Erysiphe graminis f. sp. tritici; assay: Test A: wheat powdery mildew, preventive spray on wheat seedlings, disease rating
Description: (§1) The test compounds were first dissolved in acetone in an amount equal to 3% of the final volume and then suspended at the desired concentration (in ppm) in acetone and purified water (50/50 mix) containing 250 ppm of the surfactant Trem® 014 (polyhydric alcohol esters). The resulting test suspensions were then used in Tests A-L. Spraying a 200 ppm test suspension to the point of run-off on the test plants was the equivalent of an application rate of 500 g/ha. The test suspension was sprayed to the point of run-off on wheat seedlings. […] A dash (-) indicates no test results. All results are for 200 ppm except where followed by an “*”, which indicates 40 ppm or “**”, which indicates 50 ppm.

[2] = system: Puccinia recondita f. sp. tritici; assay: Test B: wheat leaf rust, preventive spray on wheat seedlings, disease rating
Description: as §1

Septoria nodorum = assay: Test C: wheat glume blotch, preventive spray on wheat seedlings, disease rating
Description: as §1

Septoria tritici = assay: Test D: wheat leaf blotch, preventive spray on wheat seedlings, disease rating
Description: The test compounds were first dissolved in acetone in an amount equal to 3% of the final volume and then suspended at the desired concentration (in ppm) in acetone and purified water (50/50 mix) containing 250 ppm of the surfactant Trem® 014 (polyhydric alcohol esters). The resulting test suspensions were then used in Tests A-L. Spraying a 200 ppm test suspension to the point of run-off on the test plants was the equivalent of an application rate of 500 g/ha. The test suspension was sprayed to the point of run-off on wheat seedlings. The following day the seedlings were inoculated with a spore suspension of Septoria tritici (the causal agent of wheat leaf blotch) and incubated in a saturated atmosphere at 24° C. for 48 h, and then moved to a growth chamber at 20° C. for 19 days, after which time disease ratings were made. […] A dash (-) indicates no test results. All results are for 200 ppm except where followed by an “*”, which indicates 40 ppm or “**”, which indicates 50 ppm.

Botrytis cinerea = assay: Test F: tomato Botrytis, preventive spray on tomato seedlings, disease rating
Description: (§2) The test compounds were first dissolved in acetone in an amount equal to 3% of the final volume and then suspended at the desired concentration (in ppm) in acetone and purified water (50/50 mix) containing 250 ppm of the surfactant Trem® 014 (polyhydric alcohol esters). The resulting test suspensions were then used in Tests A-L. Spraying a 200 ppm test suspension to the point of run-off on the test plants was the equivalent of an application rate of 500 g/ha. The test suspension was sprayed to the point of run-off on tomato seedlings. […] A dash (-) indicates no test results. All results are for 200 ppm except where followed by an “*”, which indicates 40 ppm or “**”, which indicates 50 ppm.

Alternaria solani = assay: Test H: tomato early blight, preventive spray on tomato seedlings, disease rating
Description: as §2

## COC(=O)NCc1cc(-c2ccn(Cc3cccc(OC(F)(F)F)c3)n2)ccc1Cl [Cmpd 65]
[1]; 40 ppm (*)
  Percentage Disease Control, Test A: 99* %
[2]; 40 ppm (*)
  Percentage Disease Control, Test B: 99* %
Septoria nodorum; 40 ppm (*)
  Percentage Disease Control, Test C: 99* %
Septoria tritici; 40 ppm (*)
  Percentage Disease Control, Test D: 100* %
Botrytis cinerea; 40 ppm (*)
  Percentage Disease Control, Test F: 0* %
Alternaria solani; 40 ppm (*)
  Percentage Disease Control, Test H: 8* %

## COC(=O)NCc1cc(-c2ccn(Cc3ccc(OC(F)(F)F)cc3)n2)ccc1Cl [Cmpd 66]
[1]; 40 ppm (*)
  Percentage Disease Control, Test A: 99* %
[2]; 40 ppm (*)
  Percentage Disease Control, Test B: 100* %
Septoria nodorum; 40 ppm (*)
  Percentage Disease Control, Test C: 100* %
Septoria tritici; 40 ppm (*)
  Percentage Disease Control, Test D: 100* %
Botrytis cinerea; 40 ppm (*)
  Percentage Disease Control, Test F: 0* %
Alternaria solani; 40 ppm (*)
  Percentage Disease Control, Test H: 96* %

## COC(=O)NCc1cc(-c2ccn(Cc3ccc(Cl)cc3)n2)ccc1Cl [Cmpd 67]
[1]; 40 ppm (*)
  Percentage Disease Control, Test A: 96* %
[2]; 40 ppm (*)
  Percentage Disease Control, Test B: 99* %
Septoria nodorum; 40 ppm (*)
  Percentage Disease Control, Test C: 99* %
Septoria tritici; 40 ppm (*)
  Percentage Disease Control, Test D: 100* %
Botrytis cinerea; 40 ppm (*)
  Percentage Disease Control, Test F: 0* %
Alternaria solani; 40 ppm (*)
  Percentage Disease Control, Test H: 96* %

## COC(=O)NCc1cc(-c2ccn(-c3cccc(OC(F)(F)F)c3)n2)ccc1Cl [Cmpd 68]
[1]; 40 ppm (*)
  Percentage Disease Control, Test A: 97* %
[2]; 40 ppm (*)
  Percentage Disease Control, Test B: 100* %
Septoria nodorum; 40 ppm (*)
  Percentage Disease Control, Test C: 99* %
Septoria tritici; 40 ppm (*)
  Percentage Disease Control, Test D: 100* %
Botrytis cinerea; 200 ppm
  Percentage Disease Control, Test F: 0%
Alternaria solani; 40 ppm (*)
  Percentage Disease Control, Test H: 86* %

## COC(=O)NCc1cc(-c2ccn(-c3cccc(C(F)(F)F)n3)n2)ccc1Cl [Cmpd 69]
[1]; 40 ppm (*)
  Percentage Disease Control, Test A: 97* %
[2]; 40 ppm (*)
  Percentage Disease Control, Test B: 92* %
Septoria nodorum; 40 ppm (*)
  Percentage Disease Control, Test C: 98* %
Septoria tritici; 40 ppm (*)
  Percentage Disease Control, Test D: 98* %
Botrytis cinerea; 200 ppm
  Percentage Disease Control, Test F: 0%
Alternaria solani; 200 ppm
  Percentage Disease Control, Test H: 32%

## COC(=O)NCc1cc(-c2ccn(Cc3ccc(C)cc3)n2)ccc1Cl [Cmpd 72]
[1]; 40 ppm (*)
  Percentage Disease Control, Test A: 99* %
[2]; 40 ppm (*)
  Percentage Disease Control, Test B: 99* %
Septoria nodorum; 40 ppm (*)
  Percentage Disease Control, Test C: 100* %
Septoria tritici; 40 ppm (*)
  Percentage Disease Control, Test D: 100* %
Botrytis cinerea; 40 ppm (*)
  Percentage Disease Control, Test F: 97* %
Alternaria solani; 40 ppm (*)
  Percentage Disease Control, Test H: 94* %

## COC(=O)NCc1cc(-c2ccn(Cc3cccc([N+](=O)[O-])c3)n2)ccc1Cl [Cmpd 73]
[1]; 40 ppm (*)
  Percentage Disease Control, Test A: 74* %
[2]; 40 ppm (*)
  Percentage Disease Control, Test B: 98* %
Septoria nodorum; 40 ppm (*)
  Percentage Disease Control, Test C: 96* %
Septoria tritici; 40 ppm (*)
  Percentage Disease Control, Test D: 98* %
Botrytis cinerea; 40 ppm (*)
  Percentage Disease Control, Test F: 95* %
Alternaria solani; 40 ppm (*)
  Percentage Disease Control, Test H: 14* %

## COC(=O)NCc1cc(-c2ccn(-c3ccc(Cl)cc3)n2)ccc1Cl [Cmpd 74]
[1]; 40 ppm (*)
  Percentage Disease Control, Test A: 100* %
[2]; 40 ppm (*)
  Percentage Disease Control, Test B: 100* %
Septoria nodorum; 40 ppm (*)
  Percentage Disease Control, Test C: 100* %
Septoria tritici; 40 ppm (*)
  Percentage Disease Control, Test D: 100* %
Botrytis cinerea; 40 ppm (*)
  Percentage Disease Control, Test F: 51* %
Alternaria solani; 40 ppm (*)
  Percentage Disease Control, Test H: 99* %

## COC(=O)NCc1cc(-c2ccn(Cc3cccc(C#N)c3)n2)ccc1Cl [Cmpd 75]
[1]; 40 ppm (*)
  Percentage Disease Control, Test A: 72* %
[2]; 40 ppm (*)
  Percentage Disease Control, Test B: 93* %
Septoria nodorum; 40 ppm (*)
  Percentage Disease Control, Test C: 40* %
Septoria tritici; 40 ppm (*)
  Percentage Disease Control, Test D: 91* %
Botrytis cinerea; 40 ppm (*)
  Percentage Disease Control, Test F: 20* %
Alternaria solani; 40 ppm (*)
  Percentage Disease Control, Test H: 61* %

## COC(=O)NCc1cc(-c2ccn(Cc3ccccc3OC(F)(F)F)n2)ccc1Cl [Cmpd 76]
[1]; 40 ppm (*)
  Percentage Disease Control, Test A: 99* %
[2]; 40 ppm (*)
  Percentage Disease Control, Test B: 100* %
Septoria nodorum; 40 ppm (*)
  Percentage Disease Control, Test C: 99* %
Septoria tritici; 40 ppm (*)
  Percentage Disease Control, Test D: 100* %
Botrytis cinerea; 40 ppm (*)
  Percentage Disease Control, Test F: 0* %
Alternaria solani; 40 ppm (*)
  Percentage Disease Control, Test H: 0* %

## COC(=O)NCc1cc(-c2ccn(-c3cc(C(F)(F)F)cc(C(F)(F)F)c3)n2)ccc1Cl [Cmpd 78]
[1]; 40 ppm (*)
  Percentage Disease Control, Test A: 100* %
[2]; 40 ppm (*)
  Percentage Disease Control, Test B: 85* %
Septoria nodorum; 40 ppm (*)
  Percentage Disease Control, Test C: 0* %
Septoria tritici; 40 ppm (*)
  Percentage Disease Control, Test D: 90* %
Botrytis cinerea; 40 ppm (*)
  Percentage Disease Control, Test F: 33* %
Alternaria solani; 40 ppm (*)
  Percentage Disease Control, Test H: 0* %

## COC(=O)NCc1cc(-c2ccn(-c3cccc(Cl)c3)n2)ccc1Cl [Cmpd 80]
[1]; 40 ppm (*)
  Percentage Disease Control, Test A: 98* %
[2]; 40 ppm (*)
  Percentage Disease Control, Test B: 98* %
Septoria nodorum; 40 ppm (*)
  Percentage Disease Control, Test C: 100* %
Septoria tritici; 40 ppm (*)
  Percentage Disease Control, Test D: 100* %
Botrytis cinerea; 40 ppm (*)
  Percentage Disease Control, Test F: 60* %
Alternaria solani; 40 ppm (*)
  Percentage Disease Control, Test H: 29* %

## COC(=O)NCc1cc(-c2ccn(-c3cccc(C)c3)n2)ccc1Cl [Cmpd 81]
[1]; 40 ppm (*)
  Percentage Disease Control, Test A: 85* %
[2]; 40 ppm (*)
  Percentage Disease Control, Test B: 99* %
Septoria nodorum; 40 ppm (*)
  Percentage Disease Control, Test C: 100* %
Septoria tritici; 40 ppm (*)
  Percentage Disease Control, Test D: 99* %
Botrytis cinerea; 40 ppm (*)
  Percentage Disease Control, Test F: 81* %
Alternaria solani; 40 ppm (*)
  Percentage Disease Control, Test H: 97* %

## COC(=O)C(=O)c1cc(-c2ccn(-c3cccc(C(F)(F)F)c3)n2)ccc1C [Cmpd 83]
[1]; 200 ppm
  Percentage Disease Control, Test A: 19%
[2]; 200 ppm
  Percentage Disease Control, Test B: 0%
Septoria nodorum; 200 ppm
  Percentage Disease Control, Test C: 0%
Septoria tritici; 200 ppm
  Percentage Disease Control, Test D: 89%
Botrytis cinerea; 200 ppm
  Percentage Disease Control, Test F: 0%
Alternaria solani; 200 ppm
  Percentage Disease Control, Test H: 0%

## CON=C(C(=O)OC)c1cc(-c2ccn(-c3cccc(C(F)(F)F)c3)n2)ccc1C [Cmpd 84]
[1]; 40 ppm (*)
  Percentage Disease Control, Test A: 98* %
[2]; 200 ppm
  Percentage Disease Control, Test B: 80%
Septoria nodorum; 200 ppm
  Percentage Disease Control, Test C: 92%
Septoria tritici; 40 ppm (*)
  Percentage Disease Control, Test D: 99* %
Botrytis cinerea; 200 ppm
  Percentage Disease Control, Test F: 67%
Alternaria solani; 200 ppm
  Percentage Disease Control, Test H: 54%

## CNC(=O)C(=NOC)c1cc(-c2ccn(-c3cccc(C(F)(F)F)c3)n2)ccc1C [Cmpd 85]
[1]; 40 ppm (*)
  Percentage Disease Control, Test A: 100* %
[2]; 40 ppm (*)
  Percentage Disease Control, Test B: 97* %
Septoria nodorum; 40 ppm (*)
  Percentage Disease Control, Test C: 99* %
Septoria tritici; 40 ppm (*)
  Percentage Disease Control, Test D: 99* %
Botrytis cinerea; 200 ppm
  Percentage Disease Control, Test F: 0%
Alternaria solani; 200 ppm
  Percentage Disease Control, Test H: 86%

## COC(=O)NCc1cc(-c2ccn(-c3cc(C(F)(F)F)ccn3)n2)ccc1Cl [Cmpd 86]
[1]; 40 ppm (*)
  Percentage Disease Control, Test A: 99* %
[2]; 40 ppm (*)
  Percentage Disease Control, Test B: 100* %
Septoria nodorum; 40 ppm (*)
  Percentage Disease Control, Test C: 100* %
Septoria tritici; 40 ppm (*)
  Percentage Disease Control, Test D: 98* %
Botrytis cinerea; 40 ppm (*)
  Percentage Disease Control, Test F: 0* %
Alternaria solani; 40 ppm (*)
  Percentage Disease Control, Test H: 9* %
